We go through five molecules from patent US20100216758A1, “Pyridone Compounds” (priority 2005, published 2010).

The target in this test is T1, human MCH-1R (Homo sapiens, UniProt Q99705).
T1 construct: expressed in transfected cells; host or cells: CHO-K1 (American Type Culture Collection), vector pEF/myc/cyto (Invitrogen)
Put plainly: MCH binding inhibition test. Conditions: membrane samples from MCH-1R expressing CHO-K1 cells, 50 pM [125I]MCH, 25° C., one hour, pH 7.4; read-out: IC50 (50% inhibition concentration of test compound to the specific [125I]MCH binding). Here is the method:
A human MCH-1R encoding cDNA sequence [FEBS Letters, Vol. 398, 253 (1996); Biochimica et Biophisica Acta, Vol. 1401, 216 (1998)] was cloned to a plasmid vector pEF/myc/cyto (Invitrogen Corporation). The obtained expression vector was transfected to host cells CHO-K1 (American Type Culture Collection) using Lipofectamine Plus Reagent (Life Technology Inc.) to provide MCH-1R expression cells.
Membrane samples prepared from the MCH-1R expression cells were incubated with each test compound and 50 pM of [^125I]MCH (NEN Co.), in an assay buffer (50 mM Tris buffer comprising 10 mM magnesium chloride, 2 mM ethylenediamine tetraacetate, 0.01% bacitracin and 0.2% bovine serum albumin; pH 7.4) at 25° C. for an hour, followed by filtration through a glass filter GF/C (Wattman Co.). After washing the glass filter with 50 mM Tris buffer (pH 7.4) comprising 10 mM magnesium chloride, 2 mM ethylenediamine tetraacetate and 0.04% Tween-20, the radioactive activity on the glass filter was measured. The non-specific binding was measured in the presence of 1 μM human MCH and 50% inhibition concentration (IC50 value) of each test compound to the specific [^125I]MCH binding was determined.

T1 sequence (Q99705 whole entry): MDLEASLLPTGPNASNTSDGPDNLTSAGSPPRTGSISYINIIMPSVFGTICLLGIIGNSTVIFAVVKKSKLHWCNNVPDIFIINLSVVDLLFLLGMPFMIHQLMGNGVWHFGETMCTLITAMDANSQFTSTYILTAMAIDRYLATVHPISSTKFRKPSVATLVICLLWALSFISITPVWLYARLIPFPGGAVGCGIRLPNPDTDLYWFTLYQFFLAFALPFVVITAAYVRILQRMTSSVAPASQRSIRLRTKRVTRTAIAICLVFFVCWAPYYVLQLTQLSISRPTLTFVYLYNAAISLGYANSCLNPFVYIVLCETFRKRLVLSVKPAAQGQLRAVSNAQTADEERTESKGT

As for `O=c1cc(OCc2ccc(Cl)cn2)ccn1CCc1ccc(CN2CCCC2)cc1` [Example 26, 4-[(5-Chloropyridin-2-yl)methoxy]-1-(2-[4-(pyrrolidin-1-ylmethyl)phenyl]ethyl}pyridin-2(1H)-one], the IC50 is 5.8 nM.

For the molecule `O=c1cc(OCc2ccc(Cl)cc2)ccn1CCc1ccc(CN2C3CCC2CC3)cc1` [Example 41, 1-{2-[4-(7-Azabicyclo[2.2.1]hept-7-ylmethyl)phenyl]ethyl}-4-[(4-chlorobenzyl)oxy]pyridin-2(1H)-one], the IC50 was found to be 3 nM.

On to `CCCNCc1ccc(CCn2ccc(OCc3ccc(F)cc3)cc2=O)cc1` [Example 72, 4-[(4-Fluorobenzyl)oxy]-1-(2-{4-[(propylamino)methyl]phenyl}ethyl)pyridin-2(1H)-one], for which the IC50 amounted to 2.6 nM.

As to `CCN(CC)Cc1ccc(CCn2ccc(OCc3ccc(Cl)cn3)cc2=O)cc1` [Example 14, 4-[(5-Chloropyridin-2-yl)methoxy]-1-(2-{4-[(diethylamino)methyl]phenyl}ethyl)pyridin-2(1H)-one], the IC50 was 7.3 nM.

For `CCN(CC)Cc1ccc(CCn2ccc(OCc3ccc(F)cc3)cc2=O)cc1` [Example 2, 1-(2-{4-[(Diethylamino)methyl]phenyl}ethyl)-4-[(4-fluorobenzyl)oxy]pyridin-2(1H)one], the IC50 is 5.9 nM.
